This is an account of results in patent publication US20220362262A1, “METHODS AND COMPOSITIONS FOR TISSUE REGENERATION” (Institute of Zoology, Chinese Academy of Sciences, priority 2019, published 2022).

The test system of series [1] is PPARG. The settings on record: agonist of PPARG; cited from earlier work.
Series [2] deals with PPARA. The settings on record: agonist of PPARA; cited from earlier work.
Series [3] concerns muscle stem cells and myoblasts in gastrocnemius, quadriceps and TA muscle. Put plainly: Stem cell and myoblast activation in skeletal muscles without injury, immunofluorescence 2 days after single bolus. It is filed as in vivo, mice. Particulars: gastrocnemius muscle, 2 days after intraperitoneal single bolus, with or without fenofibrate or WY-14643. The text has this: (§1) Some tissues were flash frozen for cryosectioning.

In series [4] the test system is GFP+ human myocytes engrafted into cryoinjured TA muscle. The settings on record: myoblasts pre-treated 0-24 h, injected 24 h after cryoinjury.
Source text: as §1

Series [5] relates to pure primary human myoblasts. Put plainly: Pure primary human myoblasts treated with PGI2-related drugs (Western blot, qRT-PCR). The format is cell-based. The settings on record: pure primary human myoblasts, relative to DMSO. A general note: In western blotting, separated proteins are transferred to a membrane and probed.
For series [6], the system named is cryoinjured TA muscle of aged and sarcopenic 2-year-old mice.
Description: Liquid chromatography-tandem mass spectrometry (LC-MS/MS) metabolomics and lipidomics analyses were performed according to previously published protocols (Chong et al., 2012).
Eight week old NOD scid gamma (NSG) or C57BL/6 mice were anaesthetized with a mixture of ketamine and xylazine (120 mg/kg and 8 mg/kg respectively) via intraperitoneal injection. After successful anesthetization, the skin over the tibialis anterior (TA) or gastrocnemius or quadriceps muscle was disinfected by wiping with 70% ethanol and a 3 mm incision was made over the TA muscle. A dry-ice-chilled 4-mm metal probe was directly applied onto the exposed skeletal muscle for three cycles of five seconds to induce cryo-injury. Thereafter, the incision was immediately sutured using a surgical suture stapler. Upon recovery under heat lamps for a period of 2 hours, the mice were randomly allocated to each treatment groups. […] Samples were serially sectioned until depleted and haemotoxylin and eosin (H&E) staining was performed on every 12th 5 um-thick tissue section. After microscopy imaging, the area of the cryo-injured myofibers was quantified using ImageJ.
Tibialis anterior (TA) tissue samples embedded in paraffin were sectioned using a microtome and transferred onto Leica Microsystems Plus Slides. Some tissues were flash frozen for cryosectioning. Paraffin-embedded sections were deparaffinized in xylene (Merck) for 2 washes (10 mins) and then transferred sequentially into 100% EtOH (Merck), 100% EtOH, 95% EtOH and 70% EtOH (2 mins) at room temperature. The sections were then rehydrated in deionized water (3 mins). Antigen retrieval was carried out using the 2100 Retriever in sodium citrate buffer (Merck, pH 6.2, 30 mins). Slides were then cooled in cold PBS (15 mins) and blocked in blocking buffer at room temperature (30 mins). Primary antibody staining was conducted in blocking buffer at 4° C. overnight with the following antibodies, GFP (1:500, sc-9996, Santa Cruz), Pax7 (5 ug/ml, 042349, DSHB), MyoD (5 ug/ml, sc-377460, Santa Cruz), Ki67 (1:100, 14-5698-82, Thermo Fisher), embryonic MHC (Myh3; 1:100, sc-53091, Santa Cruz), PDGFRa (5 ug/mL, AF1062, R&D), F4/80 (1:100, ab6640, Abcam), PPARG (1:1000, 2443S, CST), and myosin heavy chain eFluor 660 (1:20, 50-6503-82, eBioscience). After the slides were washed thrice in PBS (10 mins) and counterstained with DAPI, secondary antibody staining for GFP was conducted in blocking buffer at room temperature (1 hr) with goat anti-mouse IgG secondary antibody, Alexa Fluor 488 (1:500, A11001, Thermo Fisher).
In series [7] the test system is primary human myoblasts / myocytes.
Description: Primary human skeletal muscle (HSKM) progenitors (Gibco) were cultured on gelatin solution (0.1%, Merck-Millipore)-coated plate and incubated in a humidified atmosphere (5% CO2 and 37° C.) with growth medium composed of DMEM/F-12 (Gibco) supplemented with fetal bovine serum (FBS) (20%, GE Healthcare), L-glutamine (1%, Gibco) and penicillin-streptomycin (1%, Gibco). Confluent HSKM progenitors were induced to differentiate by replacing growth media with differentiation medium, comprising of DMEM/F-12, KnockOut Serum Replacement (2%, Gibco), L-glutamine (1%, Gibco) and penicillin-streptomycin (1%, Gibco).
RNA was extracted using TRIzol (Thermo Fisher) and reverse transcribed to cDNA with Superscript III (Thermo Fisher) according to manufacturer's instructions. The synthesized cDNA was diluted 5× in H2O before performing qPCR with KAPA SYBR FAST (Merck) on ABI Prism 7900HT (Applied Biosystems) real-time PCR system according to manufacturers' instructions.
Cells were washed with PBS (Thermo Fisher) and fixed with paraformaldehyde (PFA) (4%, Electron Microscopy Sciences) at room temperature for 10 mins. Cells were stained with primary antibody myosin heavy chain eFluor 660 (1:20, 50-6503-82, Thermo Fisher) at 4 C overnight. DAPI (Merck) was used as a nuclear counterstain according to manufacturer's recommendations. Stained cells were imaged with a Zeiss fluorescence microscope.
For series [8], the system named is cryoinjured tibialis anterior (TA) muscle.
Description: Eight week old NOD scid gamma (NSG) or C57BL/6 mice were anaesthetized with a mixture of ketamine and xylazine (120 mg/kg and 8 mg/kg respectively) via intraperitoneal injection. After successful anesthetization, the skin over the tibialis anterior (TA) or gastrocnemius or quadriceps muscle was disinfected by wiping with 70% ethanol and a 3 mm incision was made over the TA muscle. A dry-ice-chilled 4-mm metal probe was directly applied onto the exposed skeletal muscle for three cycles of five seconds to induce cryo-injury. Thereafter, the incision was immediately sutured using a surgical suture stapler. Upon recovery under heat lamps for a period of 2 hours, the mice were randomly allocated to each treatment groups. […] Samples were serially sectioned until depleted and haemotoxylin and eosin (H&E) staining was performed on every 12th 5 um-thick tissue section. After microscopy imaging, the area of the cryo-injured myofibers was quantified using ImageJ. For western blot samples, TA muscles were snap-frozen in liquid nitrogen and homogenized in RIPA buffer (Thermo Fisher) supplemented with protease inhibitor cocktails I and II (Merck) and phosphatase inhibitor cocktail set III (Merck) using TissueLyser II (Qiagen).
Series [9] deals with fibrosis in TA muscle, liver, skin and heart of 2-year old mice. Put plainly: Aging-induced fibrosis and fibrotic precursors in 2-year old mice after daily injection. Particulars: for relative changes in the % fibrotic area (Masson trichrome staining) / relative changes in the percentage fraction of fibrotic precursors (PGDFRA-positive and Ki67-positive): 7 days post-injection, 2-year old mice. The format is in vivo.
Source text: as §1

For series [10], the system named is cryoinjured TA muscle. Description: Muscle regeneration after cryoinjury: regenerative index, myogenic proteins, myofiber diameter, grip strength after bolus injection. It is filed as in vivo, mice.
Source text: as §1

The mark [11] stands for this setting: 2-year old mice, injected at 0 h after injury, 27 days post-injury.

pEC50: −log10 of the molar value. “Also recorded” adds a separate entry of the source. Read-outs that look alike come from different tables or passages of the source.

The term pEC50 denotes the negative decadic logarithm of the EC50, by convention in mol/L. For `Cc1cccc(Nc2cc(Cl)nc(SCC(=O)O)n2)c1C` [WY-14643, pirinixic acid], the pEC50 in [1] was 4.49. For the same molecule, the negative-log EC50 (pEC50) in [2] is 6.20. Further, in series [3], the “percentage fraction of myoblasts (MyoD-positive cells)” value is on record as “significantly increased” and the “percentage fraction of proliferative myoblasts (MyoD-positive Ki67-positive cells)” value is recorded as “significantly increased”.
Consider `CN(CCOc1ccc(CC2SC(=O)NC2=O)cc1)c1ccccn1` (centres unmarked) [rosiglitazone], for which the “MHC protein expression among the engrafting human myocytes” value in series [4] is reported as “significantly enhanced”. The “H3K9ac and MyoD protein (Western blot)” value in series [5] is “followed the same pattern of regulation as PPARG”. Besides, in [5], the “PPARG protein levels (Western blot)” value is on record as “stabilize and/or upregulate”. The “regenerative index (fraction of nuclei in embryonic MHC-positive myofibers)” value is on record as “can restore aged muscle regeneration; also recorded: significantly improved” in [6] (2-year old mice, injected at 0 h after injury, 6 days post-injury); “did not show as strong an improvement” in series [6] (2-year old mice, injected at 24 h and 48 h time-points); “significantly increase muscle regeneration” in series [10] (TA muscle 6.5 days post-injury, single bolus, combinations: prostaglandin at day 0, rosiglitazone at day 1, relative to DMSO vehicle). For the same molecule, in [6] (setting [11]), the “fibrotic area in the TA muscle (Masson trichrome)” value was “can reverse the aged muscle fibrosis; also recorded: significantly reduced fibrosis”. Besides, the grip strength result in [6] (setting [11]) is “can partially restore grip strength”; in series [10] (14 days post-injury, 6-week old mice, prostaglandin at 0 h, rosiglitazone at 24 h post-injury), “partially restore grip strength”. The “body weight or aging-induced obesity” value in series [6] (2-year-old mice, 27 days after single intramuscular bolus) is “no significant changes; also recorded: insufficient to affect total body weight and obesity”. The “FAO intermediates (acyl-carnitines) / FAO flux in TA muscle, LC-MS/MS” value in series [6] (2-year-old mice, bolus at 0 h post-injury, day 6) is on record as “led to an induction; also recorded: transiently increase FAO flux”. Besides, the “myogenesis (MHC protein and α-actinin immunostaining)” value in series [7] (0-24 h and 24-48 h time-windows, low density) is recorded as “significantly enhanced myogenesis”; in [7] (other time-windows, low density) it was “suppressed myogenesis”. Moreover, the “myotube/myofiber maturity and hypertrophy (immunofluorescence)” value in series [7] (0-24 h time-window, high density) is “more mature and hypertrophic human myotubes; also recorded: significantly more mature and hypertrophic; also recorded: induces myofibers with wider diameter and higher expression of MHC and α-actinin”. For the same molecule, the “mRNA levels of myogenin (MYOG), adult type I myosin heavy chain (MYH7) and perinatal myosin heavy chain (MYH8)” value in [7] (0-24 h time-window, low density, at the end of 96 h) is “uniquely upregulated”. For the same molecule, the “myocyte/myotube size and MHC, α-actinin expression (immunofluorescence)” value in series [7] (different time-windows, low density conditions) was “induces larger myocytes and myotubes with higher expression levels of MHC and α-actinin”. For the same molecule, the “mRNA levels of MYOG, MYH7 and MYH8” value in [7] (other time-windows of treatment, low density, at the end of 96 h) is on record as “no significant effects”. In series [8] (injection at 24 h and 48 h, relative to control and 0 h), the “MHC protein isoforms and α-actinin protein levels (Western blot)” value is recorded as “stronger expression”. Also, the “skeletal muscle regeneration (remaining necrotic area)” value in series [8] (injection at 24 h and 48 h after injury, 4 days post-injury) is “improved skeletal muscle regeneration”. Besides, the “MyoD and MyoG protein expression (Western blot)” value in series [8] (intramuscular injection at 24 h post-cryoinjury, TA 4 days post-injury) is reported as “elicited the strongest expression”. Moreover, the “relative changes in the % fibrotic area (Masson trichrome staining)” value in series [9] (TA muscle, daily injection) is listed as “partially reverse the aged muscle fibrosis; also recorded: significant reversal of aging-induced fibrosis”; in series [9] (heart tissue, daily injection), “partially reverse the aged cardiac fibrosis”; in series [9] (liver tissue, daily injection), “partially reverse the aged liver fibrosis”; in series [9] (skin tissue, daily injection), “partially reverse the aged skin fibrosis”. The “relative changes in the percentage fraction of fibrotic precursors (PGDFRA-positive and Ki67-positive)” value in [9] (TA muscle, daily injection) is “partially suppress the aged muscle fibrotic precursors”; in series [9] (heart tissue, daily injection) it was “partially suppress the aged cardiac fibrotic precursors”; in series [9] (liver tissue, daily injection), “partially suppress the aged liver fibrotic precursors”; in series [9] (skin tissue, daily injection), “partially suppress the aged skin fibrotic precursors”. Moreover, the “PDGFRA+ Ki67+ fibrotic precursor numbers in multiple non-skeletal muscle tissues” value in series [9] (liver, skin and heart, 2-year-old mice) is given as “suppress”. Further, the “aging-induced fibrosis (fibrotic area) in multiple non-skeletal muscle tissues” value in series [9] (liver, skin and heart, daily injection, 2-year-old mice) was “significant reversal of aging-induced fibrosis”. The “hypertrophic growth (myofiber cross-sectional Feret diameters)” value in series [10] (TA muscle 6.5 days post-injury, prostaglandin at day 0, rosiglitazone at day 1) is “increase hypertrophic growth”.
